# According to patent publication US7829665B2 (priority 2005, dated 2010):
# Columns and labels:
# [1] = molecular target: T1, full-length NS3/NS4A-2 (HCV NS3 protease) (Hepatitis C virus genotype 1a, UniProt P27958); test: NS3-NS4 protease assay / NS3 inhibition assay (RETS1 substrate, fluorescence kinetic read); format: biochemical; details: recombinant E. coli or Baculovirus full-length NS3 with NS4A-2; read-out: NS3-NS4 IC50
# T1 construct: Recombinant E. coli or Baculovirus full-length NS3 was diluted to 3.33 μM with assay buffer; made in house; host or cells: E. coli or baculovirus (BV) expression system
# Outline: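 Full-length NS3 from E. coli (2 nM in assay) or baculovirus (3 nM) was precomplexed with excess NS4A-2 peptide, then preincubated 10 min at room temperature with serially diluted compounds starting at 50 microM. Reaction was started with RETS1 substrate at 8 μM before addition and read kinetically for 30 min (ex 335/em 495 nm). Four-parameter IC50s were converted to Ki by Cheng-Prusoff using Km 2.03 μM (E. coli) or 1.74 μM (BV).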
# [2] = test system: HCV sub-genomic replicon in GS4.3 cells (HuH-7 hepatoma cells); test: Quantitation by ELISA of Neomycin phosphotransferase II (NPTII) in the HCV sub-genomic replicon, GS4.3; format: cell-based, hepatitis C virus; details: Hepatitis C virus, Huh-7; GS4.3 cells, 72 h incubation, NPTII ELISA; read-out: Replicon EC50
# Outline: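 HuH-7 GS4.3 cells carrying HCV sub-genomic replicon 1377/NS3-3′, treated 72 h at 37 °C without G418 with 3-fold dilutions from 10 μM to 56 pM (1% DMSO). NPTII in cell lysates measured by direct ELISA with TMB readout at 450 nm. EC50 from 4-parameter fit of percent DMSO-control signal.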
# T1 sequence (P27958 1027-1657): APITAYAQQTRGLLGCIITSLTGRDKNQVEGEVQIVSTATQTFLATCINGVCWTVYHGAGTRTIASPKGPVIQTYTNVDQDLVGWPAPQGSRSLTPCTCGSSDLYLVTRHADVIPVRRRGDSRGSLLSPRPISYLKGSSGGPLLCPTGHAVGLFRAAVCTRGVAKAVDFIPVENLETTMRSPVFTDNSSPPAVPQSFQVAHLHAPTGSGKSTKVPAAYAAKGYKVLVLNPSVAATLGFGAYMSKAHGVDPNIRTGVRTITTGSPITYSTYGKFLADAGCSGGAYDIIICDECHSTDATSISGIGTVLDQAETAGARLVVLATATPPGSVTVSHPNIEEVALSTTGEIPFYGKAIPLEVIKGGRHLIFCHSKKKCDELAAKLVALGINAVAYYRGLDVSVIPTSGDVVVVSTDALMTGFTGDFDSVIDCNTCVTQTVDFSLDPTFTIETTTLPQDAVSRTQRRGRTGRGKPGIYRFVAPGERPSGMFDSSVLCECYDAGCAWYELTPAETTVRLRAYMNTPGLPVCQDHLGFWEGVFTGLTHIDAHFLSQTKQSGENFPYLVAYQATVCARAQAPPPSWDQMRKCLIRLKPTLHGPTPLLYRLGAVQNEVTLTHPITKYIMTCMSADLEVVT
SMILES,IC50 [1],EC50 [2]
O=C1N[C@]2(C(=O)NS(=O)(=O)C3CC3)C[C@H]2/C=C\CCCCC[C@H](NC(=S)N2CCCC2)C(=O)N2C[C@H](OC(=O)N3Cc4cccc(F)c4C3)C[C@@H]12 [Compound 244],< 100 nM,< 100 nM
CN(Cc1ccccc1)C(=O)O[C@@H]1C[C@H]2C(=O)N[C@]3(C(=O)NS(=O)(=O)C4CC4)C[C@H]3/C=C\CCCCC[C@H](NC(=O)OC(C)(C)C)C(=O)N2C1 [Compound 245],< 100 nM,< 1000 nM
CC(C)(O)C(=O)N[C@H]1CCCCC/C=C\[C@@H]2C[C@@]2(C(=O)NS(=O)(=O)C2CC2)NC(=O)[C@@H]2C[C@@H](OC(=O)N3Cc4cccc(F)c4C3)CN2C1=O [Compound 246],< 100 nM,< 1000 nM
O=C1N[C@]2(C(=O)NS(=O)(=O)C3CC3)C[C@H]2/C=C\CCCCC[C@H](NC(=O)C2(O)CC2)C(=O)N2C[C@H](OC(=O)N3Cc4cccc(F)c4C3)C[C@@H]12 [Compound 249],< 100 nM,< 1000 nM
CC(C)C(O)C(=O)N[C@H]1CCCCC/C=C\[C@@H]2C[C@@]2(C(=O)NS(=O)(=O)C2CC2)NC(=O)[C@@H]2C[C@@H](OC(=O)N3Cc4cccc(F)c4C3)CN2C1=O (stereo partly drawn) [Compound 250],< 100 nM,< 1000 nM
O=C(CCO)N[C@H]1CCCCC/C=C\[C@@H]2C[C@@]2(C(=O)NS(=O)(=O)C2CC2)NC(=O)[C@@H]2C[C@@H](OC(=O)N3Cc4cccc(F)c4C3)CN2C1=O [Compound 251],< 100 nM,< 10000 nM
CC(C)(O)CC(=O)N[C@H]1CCCCC/C=C\[C@@H]2C[C@@]2(C(=O)NS(=O)(=O)C2CC2)NC(=O)[C@@H]2C[C@@H](OC(=O)N3Cc4cccc(F)c4C3)CN2C1=O [Compound 252],< 100 nM,< 10000 nM
CC(CO)(CO)C(=O)N[C@H]1CCCCC/C=C\[C@@H]2C[C@@]2(C(=O)NS(=O)(=O)C2CC2)NC(=O)[C@@H]2C[C@@H](OC(=O)N3Cc4cccc(F)c4C3)CN2C1=O [Compound 253],< 100 nM,< 10000 nM
CC(C)(CO)C(=O)N[C@H]1CCCCC/C=C\[C@@H]2C[C@@]2(C(=O)NS(=O)(=O)C2CC2)NC(=O)[C@@H]2C[C@@H](OC(=O)N3Cc4cccc(F)c4C3)CN2C1=O [Compound 254],< 100 nM,< 1000 nM
CC(C)(C)OC(=O)N[C@H]1CCCCC/C=C\[C@@H]2C[C@@]2(C(=O)NS(=O)(=O)C2CC2)NC(=O)[C@@H]2C[C@@H](OC(=O)N3CCc4cccc(Cl)c4C3)CN2C1=O [Compound 255],< 100 nM,< 100 nM
CC(C)(C)OC(=O)N[C@H]1CCCCC/C=C\[C@@H]2C[C@@]2(C(=O)NS(=O)(=O)C2CC2)NC(=O)[C@@H]2C[C@@H](OC(=O)N3CCc4c(Cl)ccc(Cl)c4C3)CN2C1=O [Compound 256],< 100 nM,< 100 nM
CC(C)(C)OC(=O)N[C@H]1CCCCC/C=C\[C@@H]2C[C@@]2(C(=O)NS(=O)(=O)C2CC2)NC(=O)[C@@H]2C[C@@H](OC(=O)N3CCc4cccc(F)c4C3)CN2C1=O [Compound 257],< 100 nM,< 100 nM
CC(C)(C)OC(=O)N[C@H]1CCCCC/C=C\[C@@H]2C[C@@]2(C(=O)NS(=O)(=O)C2CC2)NC(=O)[C@@H]2C[C@@H](OC(=O)N3CCc4c(F)ccc(F)c4C3)CN2C1=O [Compound 258],< 100 nM,< 100 nM
CC(C)(C)OC(=O)N[C@H]1CCCCC/C=C\[C@@H]2C[C@@]2(C(=O)NS(=O)(=O)C2CC2)NC(=O)[C@@H]2C[C@@H](OC(=O)N3CCc4c(F)ccc(Cl)c4C3)CN2C1=O [Compound 259],< 100 nM,< 100 nM
CC(C)(C)OC(=O)N[C@H]1CCCCC/C=C\[C@@H]2C[C@@]2(C(=O)NS(=O)(=O)C2CC2)NC(=O)[C@@H]2C[C@@H](OC(=O)N3CCc4c(Cl)ccc(F)c4C3)CN2C1=O [Compound 260],< 100 nM,< 100 nM
CC(C)(C)c1c(N[C@H]2CCCCC/C=C\[C@@H]3C[C@@]3(C(=O)NS(=O)(=O)C3CC3)NC(=O)[C@@H]3C[C@@H](OC(=O)N4Cc5cccc(F)c5C4)CN3C2=O)c(=O)c1=O [Compound 261],< 100 nM,< 1000 nM
CC(=O)N[C@H](C(=O)N[C@H]1CCCCC/C=C\[C@@H]2C[C@@]2(C(=O)NS(=O)(=O)C2CC2)NC(=O)[C@@H]2C[C@@H](OC(=O)N3Cc4cccc(Cl)c4C3)CN2C1=O)C1CCCCC1 [Compound 262],< 100 nM,< 1000 nM
O=C(N[C@H](C(=O)N[C@H]1CCCCC/C=C\[C@@H]2C[C@@]2(C(=O)NS(=O)(=O)C2CC2)NC(=O)[C@@H]2C[C@@H](OC(=O)N3Cc4cccc(Cl)c4C3)CN2C1=O)C1CCCCC1)c1cnccn1 [Compound 263],< 100 nM,< 100 nM
CN(C(=O)[C@@]12C[C@H]1/C=C\CCCCC[C@H](NC(=O)OC(C)(C)C)C(=O)N1C[C@H](OC(=O)N3Cc4cccc(F)c4C3)C[C@H]1C(=O)N2)S(=O)(=O)C1CC1 [Compound 264],< 10000 nM,> 10000 nM
CC(C)(C)OCC(=O)N[C@H]1CCCCC/C=C\[C@@H]2C[C@@]2(C(=O)NS(=O)(=O)C2CC2)NC(=O)[C@@H]2C[C@@H](OC(=O)N3Cc4cccc(Cl)c4C3)CN2C1=O [Compound 266],< 100 nM,< 100 nM
CC(C)(C)OC(=O)N[C@H]1CCCC/C=C\[C@@H]2C[C@@]2(C(=O)NS(=O)(=O)C2CC2)NC(=O)[C@@H]2C[C@@H](OC(=O)N3Cc4cccc(F)c4C3)CN2C1=O [Compound 267],< 100 nM,< 100 nM
CC(C)(C)OC(=O)N[C@H]1CCCCCCC[C@@H]2C[C@@]2(C(=O)NS(=O)(=O)C2CC2)NC(=O)[C@@H]2C[C@@H](OC(=O)N3Cc4cccc(F)c4C3)CN2C1=O [Compound 268],< 100 nM,< 100 nM
CC(C)(C)OC(=O)N[C@H]1CCCCCC[C@@H]2C[C@@]2(C(=O)NS(=O)(=O)C2CC2)NC(=O)[C@@H]2C[C@@H](OC(=O)N3Cc4cccc(F)c4C3)CN2C1=O [Compound 269],< 100 nM,< 100 nM
CC[C@@H]1C[C@H]2C(=O)N[C@]3(C(=O)NS(=O)(=O)C4CC4)C[C@H]3/C=C\CCCCC[C@H](NC(=O)OC3CCCC3)C(=O)N2C1 [Compound 314],< 100 nM,< 10000 nM
O=C(N[C@H]1CCCCC/C=C\[C@@H]2C[C@@]2(C(=O)NS(=O)(=O)C2CC2)NC(=O)[C@@H]2CCCN2C1=O)C1CC1 [Compound 317],< 1000 nM,> 10000 nM
CC[C@@H]1C[C@H]2C(=O)N[C@]3(C(=O)NS(=O)(=O)C4CC4)C[C@H]3/C=C\CCCCC[C@H](NC(=O)C3CC3)C(=O)N2C1 [Compound 318],< 1000 nM,> 10000 nM
CCCNC(=O)[C@@]12C[C@H]1/C=C\CCCCC[C@H](NC(=O)OC(C)(C)C)C(=O)N1C[C@H](OC(=O)N3Cc4ccccc4C3)C[C@H]1C(=O)N2 [Compound 600],< 100 nM,< 1000 nM
CC(C)(C)OC(=O)N[C@H]1CCCCC/C=C\[C@@H]2C[C@@]2(C(=O)Nc2ccccc2)NC(=O)[C@@H]2C[C@@H](OC(=O)N3Cc4ccccc4C3)CN2C1=O [Compound 601],< 100 nM,< 1000 nM
COC(=O)c1cccc(CNC(=O)[C@@]23C[C@H]2/C=C\CCCCC[C@H](NC(=O)OC(C)(C)C)C(=O)N2C[C@H](OC(=O)N4Cc5cccc(F)c5C4)C[C@H]2C(=O)N3)c1 [Compound 602],< 1000 nM,< 1000 nM
CC(C)(C)OC(=O)N[C@H]1CCCCC/C=C\[C@@H]2C[C@@]2(C(=O)NCC2CC2)NC(=O)[C@@H]2C[C@@H](OC(=O)N3Cc4cccc(F)c4C3)CN2C1=O [Compound 603],< 1000 nM,< 1000 nM
